Laboratory results reported in a melting point compilation (Tetko et al.; mined from patent text by program, amines drawn as free bases though some values may be those of a salt).

SMILES | melting point [°C]
CCOC(=O)C(=CNc1ccc(F)cc1)C(=O)c1ccc(Cl)cc1Cl | 108 to 111
O=C(O)c1ccc2oc(-c3ccc(C(F)(F)F)cc3)cc2c1 | > 260
O=C(Nc1ccc2cc(CN3CCCCC3)ccc2c1)c1ccc(-c2ccc(F)cc2)nc1 | 218 to 219
O=C1Nc2c(C(F)(F)F)cccc2C1(O)c1cc(Cl)ccc1O (stereo unspecified) | 205 to 207
COc1ccc(-c2ccc(-c3ccc(F)cc3)nc2-c2ccc(OC)cc2)cc1 | 118 to 120
COc1ccc(C(=O)c2[nH]c3cc(Cl)ccc3c2CC(=O)O)cc1 | 187 to 190
CCCC=C(NC(=O)c1ccccc1)C(=O)OCC | 68 to 70
CSc1c(N)cnc2ccccc12 | 96 to 98
O=C(NO)[C@H]1[C@H](O)CCN1C(=O)c1ccc(OC(F)(F)F)cc1 | 64 to 65
CC(=O)C=Cc1ccc(O)cc1 | 104 to 105
CCN(CC)CCOc1ccc(CNc2ncc3c(n2)N(C)C(=O)N(c2c(Cl)cccc2Cl)C3)cc1 | 137 to 138
O=c1c2cccnc2c(-c2cccc(Cl)c2)cn1CC1CCCC1 | 122 to 124
CC(N=Cc1ccc(O)cc1)c1ccccc1 (single isomer, unassigned; (-)) | 176 to 178
COC(=O)CCc1nc(C=O)ccc1O | 92 to 95
Cn1c2c(c(=O)[nH]c1=O)CCC2 | 250 to 251
O=S(=O)(Nc1cccc(CCOCc2cccc(-c3ccccc3)n2)c1)C(F)(F)F | 75 to 77
CCNC(=O)Nc1nc2cc(-c3cccnc3)cc(N3CCOCC3)n2n1 | 298 to 300
CCOC(=O)N1CCC(NC(=O)c2ccc(Cl)cc2Cl)C12CCCCC2 (stereo unspecified) | 143 to 144
O=C(C=CCc1ccccc1)NCCCCCC(=O)NO | 126 to 128
COc1cc2c(cc1N)CCCC2 | 121
N#Cc1cc(F)c(-n2cnc(C(F)(F)F)cc2=O)cc1F | 95
O=c1c2cc(F)ccc2nc(CSc2ncnc3[nH]cnc23)n1-c1ccccc1Cl | 233
CN1c2ccccc2CCC1c1ccccc1 (stereo unspecified) | 99 to 101
CON=C(C1=CN(C)CC=C1)C(F)(F)F | 140 to 143
O=C(O)c1[nH]c2cc(Cl)cc(Cl)c2c1C=C1CCNN(c2ccccc2)C1=O | > 250
Oc1ccc(-c2noc3c(Br)cc(O)cc23)cc1 | 267 to 270

SMILES | melting point [°C]
O=C1CC2(CCN(Cc3ccccc3)CC2)C(=O)N1OCc1ccccc1 | 146 to 152
CSc1ncc(S(=O)(=O)NC(C)(C)C)c(Nc2cccc(C)c2)n1 | 178
O=C1c2ccccc2COc2ccc(CCO)cc21 | 78 to 81.5
Cc1ccnc(C(=O)c2ccc(F)cc2)c1 | 98 to 100
CC(CCCCCCCCCC(=O)O)CC(=O)O (stereo unspecified) | 68.5 to 69.5
CCc1c(-c2ccc(OCc3ccccc3)cc2)c2cc(C(=O)O)c3c(NC(C)=O)ccc1n23 | 244 to 246
CCCCOC(=O)n1nc(-c2cccc(Br)c2)ccc1=O | 126 to 129
Cc1ccnc(N2CCN(CCc3c(C)n4c5c(cc(NC(=O)c6ccccc6)cc35)CCC4)CC2)c1 | 218
O=C(O)COc1cccc2c1CCc1sc(S(=O)(=O)CC(c3ccccc3)c3ccccc3)nc1-2 | 168 to 170
CC1(C(F)(F)F)C(=O)NC(=O)NC1=O | 205 to 206
Clc1ccc(-c2nc(COc3ccc(CCCn4ccnc4)cc3)co2)o1 | 88 to 89
Cn1c(-c2ccccn2)cc(O)c(C(=N)c2ccccc2)c1=O | 242 to 245
Nc1ccc(-c2cc3c(Nc4ccc(Cl)cc4F)ncnc3o2)cc1 | 229 to 232
COc1ccc(-c2nn(CC3CC3)c(=O)cc2-c2ccncc2)cc1 | 128 to 130
COc1cc2ncnc(N3CCC(CCBr)CC3)c2cc1OC | 191
CCc1ccc(CC2N=C(c3ccc(F)cc3)c3cc(Cl)ccc3N(C)C2=O)cc1CC (stereo unspecified) | 54 to 56
O=C1C(O)=C(CC2CCCC(C(F)(F)F)C2)C(=O)c2ccccc21 (stereo unspecified) | 142
COc1ncnc(-c2cc(NS(C)(=O)=O)c(C#N)cc2F)c1C | 218 to 220
Cc1cnc(CNC(=O)c2ccnc(N3CCN(Cc4ccc(F)cc4)C3=O)c2)cn1 | 169 to 171
CCOC(=O)CC1N(c2c(C)cccc2C)C(=N)C(C)N1c1c(C)cccc1C (stereo unspecified) | 116 to 119
NC(=O)NCCSc1ccc2nccn2n1 | 216 to 217
Cc1[nH]c2ccccc2c1CCCN1CCC(O)(Cc2ccccc2)CC1 | 132 to 134
O=c1c2cc(F)c(Cl)nc2n(-c2ccc(C(F)(F)F)cc2)c(=O)n1OCc1ccccc1 | 245 to 246
CC1(C)Oc2ccc(C#N)cc2[C@H](N(Cc2ccco2)c2ncco2)[C@H]1O | 63
COc1cccc(CNC(=O)c2nc3cccc(COCc4ccc(C(=O)O)cc4)c3c(=O)[nH]2)c1 | 230 to 232
CC(=O)N(Cc1ccc2c(c1)OCO2)c1ccc(Oc2ccccc2)cc1 | 75 to 76

SMILES | melting point [°C]
COc1ccc(C#N)c(Cl)c1OC(C)=O | 97 to 99
O=C(O)c1cn(C2CC2)c2cc(N3CCNC(c4cc5ccccc5o4)C3)c(F)cc2c1=O (stereo unspecified) | 203 to 206
Cc1cc(CC2CCCCC2)c(NC(=O)OCc2ccccc2)c(=O)n1CC(=O)O | 150
CC(C)(C)NCCCOc1ccccc1Cc1cccc2[nH]ccc12 | 96
Cc1ccc(S(=O)(=O)CNC=O)cc1 | 103 to 107
Cc1cc(C)nc(COc2ccc3c(c2)c(SC(C)(C)C)c(CC(C)(C)C(=O)O)n3Cc2ccc(Cl)cc2)n1 | 213 to 215
CC(C)(C)[C@H](COC(=O)OCc1ccccc1)NC(=O)[C@@H](CC(=O)OCc1ccccc1)n1ccc(-c2ccc(-c3ccncc3)cc2)c1 | 74 to 76
CONC(=O)c1cc(OC)cc(Oc2cccc(C(F)(F)F)c2)n1 | 91 to 92
C=Cc1ccc(NC(=O)OC)nc1 | 146 to 148
Cc1ncccc1C(C#N)N1CCN(C(=O)CC(NC(=O)c2cccc(OCc3ccc4ccccc4n3)c2)c2ccccc2)CC1 (stereo unspecified) | 101 to 104
Brc1ccc2c(c1)N=C(N1CCN(c3ccccc3)CC1)c1cccc3c1N2CC3 | 171 to 173
O=C1NC(Cc2ccc(OCc3ccccc3)cn2)C(=O)NC1Cc1ccc(Cl)cc1 (stereo unspecified) | 227 to 229
COc1ccc(C)cc1NC(=O)Nc1ccc(N2CCN(C(=O)Nc3ccc(OCCO)cc3Cl)CC2)c(F)c1 | 118 to 120
c1ccc(CSCC2CCn3c(nc4ccccc43)S2)cc1 (stereo unspecified) | 97 to 99
CCC1(CC)c2ccccc2C(CC)(CC)N1OC(C)(C)C#N | 63 to 64
C=CCOC(=O)NC12CC3CC(CC(C3)C1)C2 | 56 to 58
C=CCN(CC=C)c1nc(NCC(=O)OC)n2oc(=O)nc2n1 | 173 to 174
O=c1cc(-c2ccc(CO)cc2)oc2ncccc12 | 218 to 219
O=C1C[C@@H]2[C@@H](/C=C/[C@H](CCc3ccccc3)OC3CCCCO3)[C@H](OC(=O)c3ccc(-c4ccccc4)cc3)C[C@@H]2O1 (stereo partly specified) | 118 to 119
CCc1cn(C2CC(N=[N+]=[N-])C(CO)O2)c(=O)[nH]c1=O (stereo unspecified) | 118 to 120
CNC(=O)Nc1cc(C(C)(C)COC)on1 | 65 to 67
O=C(O)[C@@H]1CCCN1C(=S)CCc1ccccc1 | 86 to 88
O=C(NC1CCC(CCN2CCN(c3nccc4c3OCC4)CC2)CC1)C1CCOC1 (stereo unspecified) | 195
Nc1ccc2nc(O)c(O)nc2c1N | > 300
CCOC(=O)CS(=O)(=O)C=C1SC=CS1 | 134 to 136
Cn1cc(C(=O)NCc2ccc(Cl)cc2)c(=O)c2cc(CO)sc21 | 222 to 225

SMILES | melting point [°C]
COc1ccc2c(c1)C(=O)CC21CNC(=O)C1 (stereo unspecified) | 179 to 180
CC(C)c1ccc(N2C(=O)CN(c3cccc(C(=O)O)c3)C2=O)cc1 | 249 to 252
CCOC(=O)Cc1ccc(NC(=O)c2cc(C(C)C)c(C(C)C)o2)cc1 | 91.5 to 92.5
CS(=O)(=O)Cc1ccc2oc([N+](=O)[O-])c(-c3ccccc3)c2c1 | 178 to 181
N#CCCNC(=O)c1cccc(-c2ccc3c(c2)C(Oc2cccc(C(F)(F)F)c2)CC3)c1 (stereo unspecified) | 120 to 121
N#Cc1cc(Cn2cncn2)cc(-c2ccc(F)cc2)c1 | 134 to 135
O=C(Nc1cnccn1)C(Cl)(Cl)Cl | 68
CCCCCCCCCCNC(=O)[C@@H]1C[C@H]1c1ccc([N+](=O)[O-])cc1 (relative stereo) | 127 to 129
CN(C)C(=O)N(c1ccc(OC(F)(F)F)c(Cl)c1)C(C(=O)O)c1ccc(Cl)cc1 (stereo unspecified) | 77
O=C(O)c1ccc(CCCC2SCC(=O)N2CCCC2(O)CCCCC2)cc1 (stereo unspecified) | 118 to 121
CC(C)(Oc1ccc(CCC(=O)c2ccc(-c3ccc(C(F)(F)F)cc3)s2)cc1F)C(=O)O | 150 to 151
CCCCCCCCCCCCNC1=NS(=O)(=O)N=C1NCCSCc1ccc(CN(C)C)o1 | 136 to 139
CCOC(=O)c1cccc(-c2ccc(F)c3cc(CO)sc23)c1 | 89 to 90
Cc1cccc(NC(=O)NCC(=O)N(CC(=O)N(C)c2ccccc2)c2ccccc2Cl)c1 | 180
CS(=O)(=O)OCC(Oc1ccc(F)c(C(N)=O)c1F)c1nc(-c2ccc(C(F)(F)F)cc2)c(Cl)o1 (stereo unspecified) | 163
CC(=O)n1ncc2c(O)cccc21 | 140 to 142
O=C(O)C1(c2ccc(Nc3nc(N4CCOCC4)nc4c3CCC4)cc2)CCC1 | 279 to 281
C[C@@H](CO)NC(=S)[C@@H](CC(=O)OC(C)(C)C)NC(=O)OC(C)(C)C | 70 to 72
Cc1c(-c2ccc(Cl)cc2)n(Cc2ccc(OCCN3CCCCC3)cc2)c2ccc(O)cc12 | 161 to 164
CC(C)(C)NC(=O)c1nn(-c2ccc(Cl)cc2F)c2c1C1CCC2C1 (stereo unspecified) | 148 to 152
O=C(O)CCCCCc1nc2ccccc2o1 | 82
COCc1c(Cl)ccc(C(=O)c2cnoc2C2CC2)c1S(C)(=O)=O | 83.6 to 84.2
O=[N+]([O-])c1nccn1CCCl | 85 to 87
